Results from article PMC4191898 (Bioorganic & medicinal chemistry letters, 2014).

System: DU-145 cells
Experiment: antiproliferative activity against DU-145 cells
Assay type: cell-based, human
Settings: for GI50: means of three experiments ± standard deviation, Inactive = <20% DU-145 growth inhibition at 50 μM

| GI50 | GI50 values (range in words) | Compound | antiproliferative activity (in words) |
| --- | --- | --- | --- |
| Inactive | – | O=C(N1CCC(c2nc(-c3ccc(F)cc3)no2)CC1)N1CCCc2ccccc21 [Compound 8i] | complete loss |
| Inactive | – | O=C(N1CCC(c2nc(-c3ccc(F)cc3)no2)CC1)N1CCc2ccccc21 [Compound 8l] | – |
| – | – | CN(Cc1ccco1)C(=O)N1CCC(c2nc(-c3ccc(F)cc3)no2)CC1 [Compound 8a] | markedly lower |
| Inactive | – | CCCCNC(=O)N1CCC(c2nc(-c3ccc(F)cc3)no2)CC1 [Compound 8b] | no activity was detected |
| Inactive | – | O=C(N1CCOCC1)N1CCC(c2nc(-c3ccc(F)cc3)no2)CC1 [Compound 8n] | – |
| – | submicromolar range | O=C(NCc1ccccc1)N1CCC(c2nc(Cc3ccccc3)no2)CC1 [Compound 11b] | – |
| Inactive | – | CC(C)(C)NC(=O)N1CCC(c2nc(-c3ccc(F)cc3)no2)CC1 [Compound 8q] | – |
| – | – | O=C(NCc1ccsc1)N1CCCC(c2nc(Cc3ccccc3)no2)C1 (centres unmarked) [Compound 13] | completely eliminated |
| Inactive | – | COC(=O)CNC(=O)N1CCC(c2nc(-c3ccc(F)cc3)no2)CC1 [Compound 8e] | no activity was detected |
| – | – | O=C(NCc1ccsc1)N1CCCC1c1nc(Cc2ccccc2)no1 (centres unmarked) [Compound 16] | completely eliminated |
| Inactive | – | O=C(N1CCCCC1)N1CCC(c2nc(-c3ccc(F)cc3)no2)CC1 [Compound 8m] | – |
| Inactive | – | CC(C)Cc1noc(C2CCN(C(=O)NCc3ccccc3)CC2)n1 [Compound 11i] | – |
| Inactive | – | Cc1noc(C2CCN(C(=O)NCc3ccccc3)CC2)n1 [Compound 11j] | – |
| – | – | O=C(NCc1ccsc1)N1CCC(c2nc(Cc3ccccc3)no2)C1 (centres unmarked) [Compound 15] | drastically reduced |
| – | – | O=C(N1CCC(c2nc(-c3ccc(F)cc3)no2)CC1)N1CCc2ccccc2C1 [Compound 8j] | markedly lower |
| – | submicromolar range | O=C(NCc1ccsc1)N1CCC(c2nc(-c3ccc(F)cc3)no2)CC1 [Compound 8g] | – |
| – | submicromolar range | O=C(NCc1ccccc1)N1CCC(c2nc(COc3ccccc3)no2)CC1 [Compound 11d] | – |
| Inactive | – | C#CCNC(=O)N1CCC(c2nc(-c3ccc(F)cc3)no2)CC1 [Compound 8k] | no activity was detected |
| – | submicromolar range | Cc1cc(CNC(=O)N2CCC(c3nc(-c4ccc(F)cc4)no3)CC2)nn1C [Compound 8o] | – |
| Inactive | – | COCCNC(=O)N1CCC(c2nc(-c3ccc(F)cc3)no2)CC1 [Compound 8r] | – |
| Inactive | – | O=C(NCC1CC1)N1CCC(c2nc(-c3ccc(F)cc3)no2)CC1 [Compound 8s] | – |
| – | – | O=C(NCc1ccsc1)N1CCCCC1c1nc(Cc2ccccc2)no1 (centres unmarked) [Compound 14] | completely eliminated |
